Data as given in patent US11072596B2, “Poly(ADP-ribose) polymerase inhibitor, preparation method and use” (SELECTION BIOSCIENCE LLC, priority 2017, dated 2021).

Assays:
[1] = Liver microsomal stability in vitro, cynomolgus monkey; type: in vitro ADME; conditions: for half-life at 1 μM: pH 7.4, cynomolgus monkey liver microsomes 0.5 mg protein/mL, 1 μM test compound, 37° C., read-out: Cynomolgus monkey T1/2
Method: Evaluation of in vitro liver microsomal stability of the compound of the present disclosure was tested by the following method:
Buffer: 100 mM potassium phosphate buffer, pH 7.4; […] MgCl2.
Liver microsomes: human liver microsomes, Corning Cat No. 452117; Rat liver microsomes, Xenotech Cat No. R1000; Mouse liver microsomes, Xenotech Cat No. M1000; Dog liver microsomes, Xenotech Cat No. D1000; Liver microsomes of cynomolgus monkey, Corning Cat No. 452413, the final concentration was 0.5 mg protein/mL.
1. Intermediate solution: 5 μL of compound or control in stock solution (10 mM) was diluted with 495 μL of methanol (concentration: 100 μM, 99% MeOH).
2. Operating solution: the intermediate solution was diluted […] with 450 μL 100 mM potassium phosphate buffer (concentration: 10 μM, 9.9% MeOH).
1. 10 μL of compound or control solution per well was added to all plates (T0, T5, T10, T20, T30, T60, NCF60) except matrix blank.
2. Microsome solution was distributed to 96-well plates according to platemap for standby, 680 μL per well, and the mixture of microsome solution and the compound was incubated at 37° C. for about 10 minutes.
4. After preheating, NADPH regeneration system was distributed to 96-well plate, 90 μL per well, for standby according to plate map, which was added to each plate to start the reaction, 10 μL per well. The final concentration of each component in the incubation medium includes: 0.5 mg protein/mL microsome, 1 μM test compound, […], 0.99% methanol and 0.01% DMSO.
6. The above-prepared stop solution (4° C. cooling) was added to stop the reaction, 300 μL per well.
9. During centrifugation, eight new 96-well plates were loaded with 300 μL of HPLC water, and then 100 μL of supernatant was transferred for mixing, followed by LC/MS/MS detection.
10. Data analysis: The peak area of the corresponding compound and internal standard was detected by LC-MS/MS, and the T1/2 of the compound was calculated by the following formula: […]

MDA-MB-436 cells = assay: Pharmacodynamic study on mouse MDA-MB-436 model; type: in vivo, BALB/c nude mice; conditions: for T/C / TGI / Tumor volume (day 39) / Tumor volume (day 0): MDA-MB-436 in nude mice; for T/C / TGI / Tumor volume (day 39) / rate of test animals in which the tumor completely disappeared: 50 mg/kg PO x 18 days; for T/C / TGI / Tumor volume (day 39): day 39; for Tumor volume (day 0): day 0, before dosing; for rate of test animals in which the tumor completely disappeared: observed until the 39th day; for inhibitory effect on the tumor growth, in words: 50 mg/kg, continuous PO administration for 18 days
Method: BALB/c nude mice, aged 6-8 weeks old, weighing 18-22 g, female, provided by Shanghai Lab Animal Research Center (Shanghai Xipuer-Beikai) with the animal certificate no: 20130016001914.
Human breast cancer MDA-MB-436 cells (ATCC, Manacas, Va., Article number (Art. No.): ATCC-HTB-130) were cultured in vitro in monolayer under the conditions of RPMI1640 medium with 10% fetal bovine serum and 37° C. 5% CO2 incubator. The passage was routinely digested with trypsin-EDTA twice a week. When the cell saturation was up to 80%-90% and reached the requirement, the cells were collected, counted and inoculated. 0.2 mL (1×10^7) MDA-MB-436 cells (added with matrix gel, volume ratio 1:1) were subcutaneously inoculated into the right back of each mouse, and mice were randomly grouped and dosed when the average tumor volume reached 157 mm^3.
2.5 g of methylcellulose was slowly added into 80 mL of deionized water in a suitable container under stirring, stirred until uniform, 10 mL of Tween 80 was added to the solution, stirred until uniform, continued to add deionized water to 500 mL, and stirred until uniform to obtain a vehicle solution. Then an appropriate amount of p-toluenesulfonate of example 23 was weighed, and an appropriate amount of the above vehicle solution was added and vortexed until uniform.
The subcutaneous tumor volumes of nude mice were measured 2-3 times a week, and the mice were weighed, and the data were recorded.
Experimental evaluation index: tumor growth inhibition rate TGI (%) or relative tumor proliferation rate T/C (%) was used for evaluation, wherein T was the experimental group, and C was the control group.
Calculation of relative tumor proliferation rate: If T>T0, T/C (%)=(T−T0)/(C−C0)×100%, if T<T0, T/C (%)=(T−T0)/T0×100%, wherein T and C were tumor volumes at the end of the experiment; T0 and C0 were tumor volumes at the beginning of the experiment.

| metabolic stability in cynomolgus monkey liver microsomes, in words ([1]; cynomolgus monkey liver microsomes) | SMILES | half-life at 1 μM [1] | T/C (MDA-MB-436 cells) | TGI (MDA-MB-436 cells) | Tumor volume (day 39) (MDA-MB-436 cells) | Tumor volume (day 0) (MDA-MB-436 cells) | rate of test animals in which the tumor completely disappeared (MDA-MB-436 cells; nude mouse MDA-MB-436 model) | inhibitory effect on the tumor growth, in words (MDA-MB-436 cells; nude mouse MDA-MB-436 model) | anti-tumor activity compared with positive control Niraparib, in words (MDA-MB-436 cells; nude mouse MDA-MB-436 model, 50 mg/kg PO for 18 days) |
| --- | --- | --- | --- | --- | --- | --- | --- | --- | --- |
|  | NC(=O)c1cccc2cn(-c3ccc([C@@H]4CCCNC4)cc3)nc12 [Niraparib, reference compound] | 0.967 h | 1.5% | 98.5% | 187 mm^3 | 157 mm^3 | zero | very strong inhibitory effect |  |
| excellent metabolic stability | NC(=O)c1cccc2cn(-c3ccc([C@]4(F)CCCNC4)cc3)nc12 (single isomer, unassigned) [Example 23, (R or S)-2-(4-(3-fluoropiperidin-3-yl)phenyl)-2H-indazole-7-carboxamide] | 1.03 h | −68% | 168% | 49 mm^3 | 157 mm^3 | 50% | very strong inhibitory effect | stronger |
